Assay [1] deals with S. aureus FRI 100. The assay can be described thus: Minimum stationary-bactericidal concentration (MSC). The assay is classed as cell-based, Staphylococcus aureus. To be noted: for MSC: S. aureus FRI 100, stationary cells, 24 hours. Here is the method: Determination of the Minimum Stationary-Bactericidal Concentration.
Cultures of C. crescentus (24 hour incubation) and S. aureus cells (5 day incubation) were grown from single colonies. Cells were collected by centrifugation (8500 rpm for 2.5 minutes) and re-suspended in M2 salt solution (for C. crescentus; 1.74 g/L Na2HPO4, 1.06 g/L KH2PO4, and 0.5 g/L NH4Cl) or phosphate-buffered saline (for S. aureus; PBS, Fisher Scientific). The centrifugation and re-suspension was repeated two more times. After the repeated washing steps, the cell suspension was diluted 10-fold to achieve approximately 10^8 cells/mL. Aliquots of the diluted cell suspension were transferred into wells of a 96-well plate (100 μL/well), and 2-fold serial dilutions were performed to test a range of antibiotic concentrations. The plate was sealed with Parafilm® and incubated for 24 hours at room temperature in the dark. After incubation, 50 μl was removed from each well to spread on nutrient agar plates (1.5% agar in PYE for C. crescentus, and LB for S. aureus). The colonies on each plate were counted after growing the cells for 1-2 days. For determining the kinetics of bactericidal activity of DCAP on stationary cultures, the washed cells were diluted by 100-fold in appropriate solutions and tested using a single concentration of the compound while including a DMSO control sample. Cell suspensions were kept in closed microcentrifuge tubes instead of the wells of 96-well plates. 100 μL of the suspensions was removed for plating at each time point. All MSC experiments were performed in static conditions.
In addition to its activity against actively growing bacteria, DCAP kills cells in stationary phase (Table 3). This property was tested against C. crescentus and S. aureus. […] To ensure that bacteria were deprived of nutrients, the cells were grown into late stationary phase (i.e., 24 hours for C. crescentus and 5 days for S. aureus). These cells were collected, suspended in isotonic solutions devoid of amino acids or sugars, and treated with a small molecule (DMSO, DCAP, CCCP or ampicillin). Cell viability was measured over time by plating culture aliquots on non-selective, solid growth media. The minimum concentration of antibiotic required to completely eliminate colony formation was designated as the minimum stationary-bactericidal concentration (MSC). […] CCCP inhibited the proliferation of C. crescentus cells regardless of their physiological status. However, the MSC of CCCP for S. aureus was >300-fold higher than the MIC. This dramatic decrease in the effectiveness of CCCP in S. aureus may be due to changes in membrane composition as cells adjust their metabolism in nutrient-deprived conditions.

The next assay has as its system C. crescentus CB15N. The assay can be described thus: Minimum biofilm inhibitory concentration (bMIC). The assay is classed as cell-based, Caulobacter crescentus. Here is the method: Determination of the minimum biofilm inhibitory concentration of growth (bMIC) and biofilm eradication concentration (MBEC). Overnight cultures of C. crescentus and S. aureus were grown and diluted 100-fold into appropriate nutrient media. Aliquots of the diluted suspension were transferred into wells of 96-well plates (150 μL/well). 2-fold serial dilutions were performed for compound-containing wells. For every experiment, three replicates for each compound concentration tested were included. After transferring aliquots of the suspension, the plates were closed with specialized lids that have protruding pins (Nunc STP System), and the plates were sealed using Parafilm®. The plates were incubated in a static incubator at 30° C. (C. crescentus) or 37° C. (S. aureus) for 24 hours. After the cells had formed biofilms on the surface of the pins, the pins were rinsed by dipping them in M2 (C. crescentus) or PBS (S. aureus) solutions. To rinse the pins, clean, sterile 96-well plates were used (aliquots of 200 μL/well); each rinse lasted 10 sec. After washing away planktonic cells loosely bound to biofilms, the pins were inserted into a 96-well plate that was pre-aliquoted with nutrient media containing antibiotics (2-fold dilutions, a final volume of 150 μL/well). The plates were sealed with Parafilm®, and incubated for 17 hours, and the bMIC was measured at the end of the incubation by visual inspection. […] The plates were sealed with Parafilm®, incubated for 24 hours, and the MBEC was measured at the end of the incubation by visual inspection.
Membrane-active compounds are also efficient at eradicating biofilm-associated cells (Table 2). […] To determine the efficacy of antibiotics against biofilms, the minimum biofilm inhibitory concentration (bMIC) and the minimum biofilm eradication concentration (MBEC) were measured. […] After 24 hours of exposure to compounds, the lowest concentration of antibiotic that inhibited planktonic cell growth in the wells (bMIC) was determined.

For assay [2], the system named is S. aureus FRI 100. The assay can be described thus: Minimum biofilm eradication concentration (MBEC). The assay is classed as cell-based, Staphylococcus aureus. Conditions: S. aureus FRI 100 biofilm. Here is the method:
Determination of the minimum biofilm inhibitory concentration of growth (bMIC) and biofilm eradication concentration (MBEC). Overnight cultures of C. crescentus and S. aureus were grown and diluted 100-fold into appropriate nutrient media. Aliquots of the diluted suspension were transferred into wells of 96-well plates (150 μL/well). 2-fold serial dilutions were performed for compound-containing wells. For every experiment, three replicates for each compound concentration tested were included. After transferring aliquots of the suspension, the plates were closed with specialized lids that have protruding pins (Nunc STP System), and the plates were sealed using Parafilm®. The plates were incubated in a static incubator at 30° C. (C. crescentus) or 37° C. (S. aureus) for 24 hours. After the cells had formed biofilms on the surface of the pins, the pins were rinsed by dipping them in M2 (C. crescentus) or PBS (S. aureus) solutions. To rinse the pins, clean, sterile 96-well plates were used (aliquots of 200 μL/well); each rinse lasted 10 sec. After washing away planktonic cells loosely bound to biofilms, the pins were inserted into a 96-well plate that was pre-aliquoted with nutrient media containing antibiotics (2-fold dilutions, a final volume of 150 μL/well). The plates were sealed with Parafilm®, and incubated for 17 hours, and the bMIC was measured at the end of the incubation by visual inspection. After the bMIC run, the rinse steps were repeated to remove planktonic cells, and the pins were inserted into a 96-well plate that was pre-aliquoted with drug-free nutrient media (aliquots of 150 μL/well). The plates were sealed with Parafilm®, incubated for 24 hours, and the MBEC was measured at the end of the incubation by visual inspection.
After performing bMIC experiments, biofilms growing on the pins of the lid were transferred to nutrient media devoid of antibiotics to measure the minimum concentration of antibiotic that prevented planktonic growth from biofilms in antibiotic-free nutrient media (MBEC). […]

Some results are limits rather than exact numbers.

For `N#CC(C#N)=NNc1cccc(Cl)c1` [CCCP, carbonyl cyanide m-chlorophenyl hydrazone], the MSC in the assay on S. aureus FRI 100 [1] was >400 µM. The “MSC relative to MIC” value in the assay on S. aureus FRI 100 [1] (S. aureus, stationary vs growing cells) was > 300 fold. In the assay on C. crescentus CB15N, this compound gave a bMIC of 5 µM. In the assay with S. aureus FRI 100 [2], this compound registered an MBEC of 80 µM.
In the assay on S. aureus FRI 100 [1], `OCC(CO)(CO)NCC(O)Cn1c2ccc(Cl)cc2c2cc(Cl)ccc21` (centres unmarked) [DCAP, 2-((3-(3,6-dichloro-9H-carbazol-9-yl)-2-hydroxypropyl)amino)-2-(hydroxymethyl)propane-1,3-diol] showed an MSC of 75 µM. Moreover, the “Minimum time required to obtain the MSC” value with S. aureus FRI 100 [1] (S. aureus, data not shown) was 6 h. The compound also showed a bMIC in the assay with C. crescentus CB15N of 20 µM. For the same compound, the MBEC in the assay on S. aureus FRI 100 [2] is >200 µM.

These data come from patent US10314816B2, “Antimicrobial compounds, compositions and methods of use thereof” (Wisconsin Alumni Research Foundation, priority 2012, dated 2019).
